From patent publication US6525178B2, “PGC-1, a novel brown fat PPARgamma coactivator” (Dana-Farber Cancer Institute, priority 1997, dated 2003)

Tests used:
3T3-F442A cells = test: Southern blot analysis of mitochondrial DNA in 3T3-F442A cells expressing PGC-1; assay type: cell-based; settings: cells expressing PGC-1, COX-II cDNA probe
Description: Changes in the cellular content of mitochondrial DNA have been used as a simple biochemical assay for mitochondrial proliferation (Martin et al. (1995) Biochem. J. 308:749-752; Klingenspor et al. (1996) Biochem. J. 316:607-613). To address this possibility, Southern blot analysis of mitochondrial DNA was performed. 3T3-F442A Southern blots were carried out by isolating and processing genomic DNA as described in Maniatis et al. (1989) Molecular Cloning: A Laboratory Manual, 2nd Ed. (Cold Spring Harbor, N.Y.: Cold Spring Harbor Laboratory Press)). 3T3-F442A cells were differentiated as described above. Total cellular DNA was isolated and was digested with NCo I. Ten micrograms of DNA were electrophoresed, and the Southern blot was hybridized using COX-II cDNA as a probe for mitrochondrial DNA.
The same blots were also probed with cDNA for 36B4, a ribosomal protein encoded in the nucleus. The blot was then stripped and hybridized with the nuclear gene […].

[1] = target: T1, retinoid-X receptor (RXRα) (Homo sapiens, UniProt P19793); test: In vitro binding of GST-PGC-1 to in vitro-translated nuclear receptor; settings: with or without ligand addition
T1 construct: made in house; host or cells: receptor: reticulocyte lysate in vitro translation (Promega TNT); GST-PGC-1: E. coli
T1 sequence (P19793 1-462): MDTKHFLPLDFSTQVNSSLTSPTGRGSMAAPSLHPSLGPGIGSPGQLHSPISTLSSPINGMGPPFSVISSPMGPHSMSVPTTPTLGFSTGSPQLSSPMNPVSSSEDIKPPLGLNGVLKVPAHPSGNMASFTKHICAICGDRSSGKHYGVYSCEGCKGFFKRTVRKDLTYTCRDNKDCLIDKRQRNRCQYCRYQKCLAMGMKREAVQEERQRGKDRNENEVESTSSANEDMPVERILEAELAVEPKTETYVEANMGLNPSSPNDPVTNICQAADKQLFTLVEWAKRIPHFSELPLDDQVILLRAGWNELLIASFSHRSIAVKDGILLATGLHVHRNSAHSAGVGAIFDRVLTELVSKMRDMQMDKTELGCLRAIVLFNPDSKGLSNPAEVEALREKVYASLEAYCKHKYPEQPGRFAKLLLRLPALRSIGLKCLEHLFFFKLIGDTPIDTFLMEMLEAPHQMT
Description: The assays were carried out as follows.

3T3-F442A preadipocytes = test: Northern analysis of 3T3-F442A cells with retroviral ectopic expression of PGC-1; assay type: cell-based
Description: To examine directly the ability of PGC-1 to regulate the genes of adaptive thermogenesis, retroviral vectors have been used to express this protein in white fat precursor cells, and 3T3-F442A preadipocytes were then stimulated to differentiate. Briefly, the PGC-1 viral expression vector (pBabe-PGC-1) was constructed by ligating the BamHI-Xhol fragment from pBluescript-PGC-1 plasmid into BamHI/Sall sites of pBabe-puro. Following drug selection, virally infected 3T3F442A-PGC-1 and […] cells lines were grown to confluence in DMEM with 10% BCS. Differentiation of these cells was initiated by culturing them in DMEM insulin. Cells were refed every 2 days with this medium. Specific cells were grown in DMEM with 10% CCS to confluence. […] After these treatments, total RNA was isolated and analyzed.
To induce UCP-1 expression, 1 μM 8-bromo-cAMP and […] 9-cis-retinoic acid were added to the medium, and total RNA was extracted from the cells 6 hr later. […] The mitochondrial respiratory enzyme cytochrome c-oxidase subunits COX II and IV are encoded in the mitochondrial and nuclear genome, respectively. Both of these mRNAs increase 2- to 3-fold in the cells ectopically expressing PGC-1. Expression of aP2, a white and brown fat cell gene not linked to thermogenesis, and 36B4, a ribosomal protein are shown as a loading control.

PPARγ = target: T2, PPARγ (Mus musculus, UniProt P37238); test: In vitro binding of GST-PGC-1 to in vitro-translated nuclear receptor; settings: GST-PGC-1 (aa 36-797) on beads
T2 construct: made in house; host or cells: receptor: reticulocyte lysate in vitro translation (Promega TNT); GST-PGC-1: E. coli
T2 sequence (P37238 1-505): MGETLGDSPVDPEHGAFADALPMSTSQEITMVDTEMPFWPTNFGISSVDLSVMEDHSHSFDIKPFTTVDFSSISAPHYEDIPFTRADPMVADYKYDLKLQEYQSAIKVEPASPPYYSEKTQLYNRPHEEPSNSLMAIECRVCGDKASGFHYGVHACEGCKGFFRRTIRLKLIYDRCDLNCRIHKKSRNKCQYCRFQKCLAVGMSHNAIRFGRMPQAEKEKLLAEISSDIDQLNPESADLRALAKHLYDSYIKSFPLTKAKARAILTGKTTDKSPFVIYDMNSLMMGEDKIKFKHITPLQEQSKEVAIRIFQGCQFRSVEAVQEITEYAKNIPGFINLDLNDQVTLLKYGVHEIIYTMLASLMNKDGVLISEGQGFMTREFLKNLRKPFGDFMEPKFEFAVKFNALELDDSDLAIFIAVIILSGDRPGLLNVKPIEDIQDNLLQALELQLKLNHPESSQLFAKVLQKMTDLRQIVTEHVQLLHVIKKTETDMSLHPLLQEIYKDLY
T2 sequence (O70343 36-797 partner limits assumed): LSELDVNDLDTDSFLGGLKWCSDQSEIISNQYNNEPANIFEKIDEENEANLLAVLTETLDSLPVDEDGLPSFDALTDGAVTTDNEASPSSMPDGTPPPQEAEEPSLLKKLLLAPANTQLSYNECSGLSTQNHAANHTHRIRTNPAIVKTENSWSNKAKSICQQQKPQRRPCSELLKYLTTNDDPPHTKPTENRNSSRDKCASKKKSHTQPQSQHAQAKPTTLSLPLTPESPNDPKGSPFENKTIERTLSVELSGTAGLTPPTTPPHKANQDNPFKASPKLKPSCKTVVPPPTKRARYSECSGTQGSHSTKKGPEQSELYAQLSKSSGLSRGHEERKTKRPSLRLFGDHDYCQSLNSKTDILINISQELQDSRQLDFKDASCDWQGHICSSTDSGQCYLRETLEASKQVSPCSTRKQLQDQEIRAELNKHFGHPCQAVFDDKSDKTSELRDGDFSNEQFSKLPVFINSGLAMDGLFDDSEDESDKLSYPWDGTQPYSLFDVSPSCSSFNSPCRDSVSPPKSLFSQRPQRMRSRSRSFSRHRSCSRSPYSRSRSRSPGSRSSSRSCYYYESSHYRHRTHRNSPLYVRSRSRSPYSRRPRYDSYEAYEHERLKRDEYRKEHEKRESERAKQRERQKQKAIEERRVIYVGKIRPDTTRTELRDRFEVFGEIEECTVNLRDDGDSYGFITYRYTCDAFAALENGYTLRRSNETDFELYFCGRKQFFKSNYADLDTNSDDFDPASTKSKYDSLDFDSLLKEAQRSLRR
Description: These fusion proteins were expressed, and purified from E. coli on beads containing approximately 1 μg of protein (either GST, or alone, or fused to PGC-1), 30 μl was resuspended i the binding buffer (20 mM HEPES [pH 7.7], 75 mM KCl, 0.1 mM EDTA, 2.5 mM MgCl2, 0.05% NP40,2 mM DTT, 10% glycerol).
The assays were carried out as follows. […] After electrophoresis, fixation, and enhancement, the radiolabeled proteins were visualized by autoradiography.

## PGC-1: mouse PPARγ coactivator 1 protein, SEQ ID NO:2; used as GST fusion or expressed from retroviral vector
3T3-F442A cells
  mitochondrial DNA content compared to control cells: twice
[1]
  binding of PGC-1 to RXRα: little or no binding
3T3-F442A preadipocytes; cells expressing PGC-1 vs control
  mRNA for ATP synthetase: increased
3T3-F442A preadipocytes; cells expressing PGC-1 vs control 3T3-F442A cells, 8-bromo-cAMP and 9-cis-retinoic acid, 6 hr
  mRNA for UCP-1: significantly induced
PPARγ
  binding of PGC-1 to PPARγ: interacted with PPARγ
